Measurements reported in ChEMBL document CHEMBL1201862, “PubChem BioAssay data set” (2004).
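A five-concentration, 48-hour dose response in 96-well plates underlies each endpoint, interpolated linearly between surrounding concentrations. At the GI50, growth is halved.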 Active and inactive are the calls of the source. Rule as the data show it: active = GI50 up to about 1.1 µM and inactive = higher.

Key:
Assay in all cases: DTP human tumour cell line panel, 48 h
UACC-257 = test system: UACC-257
MDA-N = test system: MDA-N
IGROV-1 = test system: IGROV-1
SW-620 = test system: SW-620
SNB-19 = test system: SNB-19
KM12 = test system: KM12
NCI/ADR-RES = test system: NCI/ADR-RES
M14 = test system: M14
SF-295 = test system: SF-295
SR = test system: SR
U-251 = test system: U-251
RPMI-8226 = test system: RPMI-8226
OVCAR-5 = test system: OVCAR-5
COLO 205 = test system: COLO 205
Hs-578T = test system: Hs-578T
A498 = test system: A498
SK-MEL-28 = test system: SK-MEL-28
HL-60 = test system: HL-60
SF-268 = test system: SF-268
SK-OV-3 = test system: SK-OV-3

Measured: GI50

COc1cc2c3cc1Oc1cc(ccc1O)C[C@@H]1c4c(cc(OC)c(O)c4Oc4ccc(cc4)C[C@@H]3N(C)CC2)CC[N+]1(C)C
inactive: UACC-257 56 µM | MDA-N > 100 µM | IGROV-1 > 100 µM | SW-620 27.2 µM | SNB-19 > 100 µM | KM12 27.1 µM | NCI/ADR-RES > 100 µM | M14 16.8 µM | SF-295 19.9 µM | SR 24.8 µM | U-251 28.9 µM | RPMI-8226 79.6 µM | OVCAR-5 > 100 µM | COLO 205 77.1 µM | Hs-578T 13.5 µM | A498 81.7 µM | SK-MEL-28 > 100 µM | HL-60 > 100 µM | SF-268 32.4 µM

CO/N=C1\CC(NC(=O)C(F)(F)F)c2ccsc21 (stereo unspecified)
inactive: SK-OV-3 > 100 µM | UACC-257 > 100 µM | MDA-N > 100 µM | IGROV-1 > 100 µM | SW-620 > 100 µM | NCI/ADR-RES > 100 µM | M14 > 100 µM | SF-295 > 100 µM | SR > 100 µM | U-251 > 100 µM | OVCAR-5 > 100 µM | COLO 205 > 100 µM | Hs-578T > 100 µM | A498 > 100 µM | SK-MEL-28 > 100 µM | HL-60 > 100 µM | SF-268 > 100 µM

CC1NC(=O)C2Cc3ccc(O)c(c3)Oc3ccc(cc3)C(O)C(C(=O)N2C)N(C)C(=O)C(C)NC(=O)C(Cc2ccc(O)cc2)N(C)C(=O)C(C)NC1=O (stereo unspecified)
inactive: UACC-257 13.6 µM | MDA-N 13.1 µM | IGROV-1 4.85 µM | SW-620 23.4 µM | SNB-19 13.8 µM | KM12 9.68 µM | NCI/ADR-RES > 100 µM | M14 63.2 µM | SF-295 > 100 µM | SR 10.7 µM | U-251 9.48 µM | RPMI-8226 12 µM | OVCAR-5 42.6 µM | COLO 205 79.6 µM | Hs-578T 5.09 µM | A498 > 100 µM | SK-MEL-28 19.2 µM | HL-60 13.9 µM | SF-268 4.03 µM

CSc1ccc(NC(=S)NN(C)C)cc1
inactive: SK-OV-3 > 10 µM | UACC-257 > 10 µM | MDA-N > 10 µM | IGROV-1 > 10 µM | SW-620 > 10 µM | SNB-19 > 10 µM | KM12 > 10 µM | NCI/ADR-RES > 10 µM | M14 > 10 µM | SF-295 > 10 µM | SR > 10 µM | U-251 > 10 µM | RPMI-8226 > 10 µM | COLO 205 > 10 µM | Hs-578T > 10 µM | A498 > 10 µM | SK-MEL-28 > 10 µM | HL-60 > 10 µM | SF-268 > 10 µM

COc1ccc(-c2cc(-c3ccccc3)nc(N)c2-c2ccc3ccccc3c2)cc1
inactive: SK-OV-3 3.84 µM | UACC-257 1.86 µM | MDA-N 1.6 µM | IGROV-1 1.68 µM | SW-620 1.75 µM | SNB-19 1.18 µM | KM12 1.73 µM | NCI/ADR-RES 1.98 µM | M14 2.53 µM | SF-295 1.87 µM | SR 2.15 µM | U-251 1.95 µM | RPMI-8226 2.13 µM | OVCAR-5 1.77 µM | COLO 205 1.68 µM | Hs-578T 1.65 µM | A498 2.04 µM | SK-MEL-28 1.95 µM | SF-268 3.3 µM

CC(=O)OCC1OC(N2C(C)=C(C(C)=O)C(c3ccco3)C(C#N)=C2S)C(OC(C)=O)C(OC(C)=O)C1OC(C)=O (stereo unspecified)
inactive: UACC-257 > 100 µM | MDA-N > 100 µM | IGROV-1 > 100 µM | SW-620 > 100 µM | SNB-19 > 100 µM | KM12 > 100 µM | NCI/ADR-RES > 100 µM | M14 > 100 µM | SF-295 > 100 µM | SR 95.3 µM | U-251 > 100 µM | RPMI-8226 > 100 µM | OVCAR-5 > 100 µM | COLO 205 > 100 µM | Hs-578T > 100 µM | A498 > 100 µM | SK-MEL-28 > 100 µM | HL-60 > 100 µM | SF-268 > 100 µM

CC(=O)c1c(=O)n(-c2ccc(C)cc2)c(O)c2c(N)n[nH]c12
inactive: SK-OV-3 > 100 µM | UACC-257 > 100 µM | MDA-N > 100 µM | IGROV-1 > 100 µM | SW-620 > 100 µM | SNB-19 > 100 µM | KM12 > 100 µM | NCI/ADR-RES > 100 µM | M14 > 100 µM | SR > 100 µM | U-251 > 100 µM | RPMI-8226 > 100 µM | OVCAR-5 > 100 µM | COLO 205 > 100 µM | Hs-578T > 100 µM | A498 > 100 µM | SK-MEL-28 > 100 µM | HL-60 > 100 µM | SF-268 > 100 µM
